Measurements as given in patent US9611278B2 (Merck Sharp & Dohme Corp., priority 2013, dated 2017).

Legend:
[1] = tested on: Spontaneously hypertensive rats (SHR); test: Acute Efficacy in Spontaneously Hypertensive Rats (SHR); assay type: in vivo, rat; conditions: single oral dose
Description: Spontaneously hypertensive rats (SHR, male, Charles River) were implanted with DSI TA11PA-C40 telemetry device (Data Sciences, Inc., St. Paul, Minn.) under isoflurane or ketamine/metomidine anesthesia. The telemetry unit catheter was inserted into the descending aorta via the femoral artery and the telemetry device was implanted subcutaneously in the left flank area. Animals were allowed to recover from surgery for 14 days before the start of any studies. Blood pressure, heart rate, and activity signals from conscious, freely moving rats were recorded continuously for 30 seconds every 10 min. On the day prior to administration of compound, a single oral dose of vehicle (10% transcutol/20% Cremophor/70% water) was administered to all animals to establish baseline control data. The blood pressure lowering efficacy of compound (PO) or vehicle was evaluated following a single oral gavage. Data were collected as hourly averages, and changes in blood pressure were calculated by subtracting control baseline data on an hourly basis. Animals were maintained on normal diet with a 12 hour light-dark cycle.
Maximum peak decreases of systolic blood pressure (SBP) in SHR at a particular P.O. dose (mpk milligrams per kilogram) for the following representative compounds are provided in Table 9. Category A=SBP in SHRs <15 mmHg; Category B=SBP in SHRs 15-25 mmHg; Category C=SBP in SHRs >25 mmHg

[2] = biological target: T1, sGC α1/β1 heterodimer stably expressed in CHO-K1 cells (CHO-K1/sGC) (Homo sapiens, UniProt Q02108+Q02153); test: Cell-based sGC Functional Assay (CASA Assay); conditions: for Emax: CHO-K1, activation as percentage of maximum cGMP production of Compound A (set to 100%), read-out: % Act.; for EC50: inflection point of cGMP generation in CHO-K1/sGC cells, 4P fit, 1 hr at 37° C., read-out: IP
T1 construct: expressed in transfected cells
T1 sequence (Q02108 1-690): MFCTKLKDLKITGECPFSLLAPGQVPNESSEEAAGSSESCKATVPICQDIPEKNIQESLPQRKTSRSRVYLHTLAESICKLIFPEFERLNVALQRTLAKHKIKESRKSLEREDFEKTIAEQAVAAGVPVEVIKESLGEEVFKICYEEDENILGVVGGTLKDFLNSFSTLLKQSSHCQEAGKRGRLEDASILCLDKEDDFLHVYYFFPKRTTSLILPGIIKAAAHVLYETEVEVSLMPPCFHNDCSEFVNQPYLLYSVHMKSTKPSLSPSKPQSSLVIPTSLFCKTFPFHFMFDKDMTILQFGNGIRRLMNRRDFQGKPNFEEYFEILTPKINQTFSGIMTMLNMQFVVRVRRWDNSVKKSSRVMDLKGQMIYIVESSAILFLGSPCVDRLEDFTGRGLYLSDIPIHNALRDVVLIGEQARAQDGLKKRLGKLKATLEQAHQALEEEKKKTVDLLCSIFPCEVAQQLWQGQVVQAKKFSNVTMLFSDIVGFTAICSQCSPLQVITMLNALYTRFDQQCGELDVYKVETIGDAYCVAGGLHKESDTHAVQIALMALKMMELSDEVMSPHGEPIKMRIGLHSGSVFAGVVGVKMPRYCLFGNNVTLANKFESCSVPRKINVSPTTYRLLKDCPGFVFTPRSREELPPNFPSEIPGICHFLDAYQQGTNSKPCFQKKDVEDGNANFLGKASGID
T1 sequence (Q02153 1-619): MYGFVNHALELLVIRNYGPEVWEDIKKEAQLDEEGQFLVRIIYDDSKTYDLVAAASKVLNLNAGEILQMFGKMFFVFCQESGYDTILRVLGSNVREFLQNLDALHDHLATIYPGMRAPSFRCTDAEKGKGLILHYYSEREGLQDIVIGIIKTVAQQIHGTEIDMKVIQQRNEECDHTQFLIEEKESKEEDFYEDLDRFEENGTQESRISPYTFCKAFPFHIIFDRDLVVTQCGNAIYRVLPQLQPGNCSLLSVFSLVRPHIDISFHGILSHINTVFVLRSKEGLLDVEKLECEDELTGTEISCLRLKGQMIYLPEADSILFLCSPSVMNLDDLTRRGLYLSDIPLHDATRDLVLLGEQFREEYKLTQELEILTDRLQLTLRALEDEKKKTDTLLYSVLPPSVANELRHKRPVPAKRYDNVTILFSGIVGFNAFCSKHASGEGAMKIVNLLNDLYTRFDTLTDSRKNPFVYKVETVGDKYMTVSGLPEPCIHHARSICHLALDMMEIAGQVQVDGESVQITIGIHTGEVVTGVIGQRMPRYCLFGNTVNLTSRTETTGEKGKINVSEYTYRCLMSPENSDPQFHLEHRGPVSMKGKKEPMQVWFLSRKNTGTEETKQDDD
How it was run: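 CHO-K1 cells stably expressing human sGC α1/β1 were incubated with compound for 1 h at 37 °C in buffer with 0.5 mM IBMX and 2.5% DMSO, with or without 1 μM DETA-NO. Intracellular cGMP was read by HTRF and expressed as percentage of maximal activation by reference activator Compound A. Values came from a 4-parameter fit.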

SMILES | Emax [2] | EC50 [2] | % Act. ([2]; activation as percentage of maximum cGMP production of Compound A (set to 100%)) | Category: maximum peak decrease of systolic blood pressure (SBP) in SHR ([1]; P.O. 1 mpk) | Category: maximum peak decrease of systolic blood pressure (SBP) in SHR ([1]; P.O. 0.3 mpk)
Cn1ncc2c(-c3nc(N)c4c(n3)NC(=O)C4(c3nnc(C4CC4)o3)C3CC3)nc(CCC(F)(F)C(F)(F)F)nc21 (stereo not drawn) [Example 44, 4-Amino-5-cyclopropyl-5-(5-cyclopropyl-1,3,4-oxadiazol-2-yl)-2-(1-methyl-6-(3,3,4,4,4-pentafluorobutyl)-1H-pyrazolo[3,4-d]pyrimidin-4-yl)-5,7-dihydro-6H-pyrrolo[2,3-d]pyrimidin-6-one] | 113% | 225 nM |  | B (Category B=SBP in SHRs 15-25 mmHg) | 
[2H]C([2H])([2H])n1ncc2c(-c3nc(N)c4c(n3)NC(=O)C4(C)c3cn(CC4CC4)nn3)nc(CCC(F)(F)C(F)(F)F)nc21 (stereo not drawn) [Example 63, 4-Amino-5-(1-(cyclopropylmethyl)-1H-1,2,3-triazol-4-yl)-5-methyl-2-(1-(methyl-d3)-6-(3,3,4,4,4-pentafluorobutyl)-1H-pyrazolo[3,4-d]pyrimidin-4-yl)-5,7-dihydro-6H-pyrrolo[2,3-d]pyrimidin-6-one] | 93% | 235 nM |  | A (Category A=SBP in SHRs <15 mmHg) | 
CC(C)n1cc(C2(C)C(=O)Nc3nc(-c4nc(CCCC(F)(F)F)nc5c4cnn5C)nc(N)c32)nn1 (stereo not drawn) [Example 78, 4-Amino-5-(1-isopropyl-1H-1,2,3-triazol-4-yl)-5-methyl-2-(1-methyl-6-(4,4,4-trifluorobutyl)-1H-pyrazolo[3,4-d]pyrimidin-4-yl)-5,7-dihydro-6H-pyrrolo[2,3-d]pyrimidin-6-one] | 103% | 368 nM |  | C (Category C=SBP in SHRs >25 mmHg) | 

More lines, in order of falling EC50 [2], values ahead:

Emax [2] | EC50 [2] | % Act. ([2]; activation as percentage of maximum cGMP production of Compound A (set to 100%)) | SMILES | Category: maximum peak decrease of systolic blood pressure (SBP) in SHR ([1]; P.O. 1 mpk) | Category: maximum peak decrease of systolic blood pressure (SBP) in SHR ([1]; P.O. 0.3 mpk)
104% | 410 nM |  | Cn1ccc2c(-c3nc(N)c4c(n3)NC(=O)C4(C)c3nnc(C4CC4)o3)nc(CCC(F)(F)C(F)(F)F)nc21 (stereo not drawn) [Example 86, 4-Amino-5-(5-cyclopropyl-1,3,4-oxadiazol-2-yl)-5,7′-dimethyl-2′-(3,3,4,4,4-pentafluorobutyl)-5,7-dihydro-6H,7′H-[2,4′-bipyrrolo[2,3-d]pyrimidin]-6-one] | B (Category B=SBP in SHRs 15-25 mmHg) | 
 | 120 nM | 128% | [2H]C([2H])([2H])n1ncc2c(-c3nc(N)c4c(n3)NC(=O)C4(C)c3cn(C(C)C)nn3)nc(CCC(F)(F)C(F)(F)F)nc21 (stereo not drawn) [Example 67, 4-Amino-5-(1-isopropyl-1H-1,2,3-triazol-4-yl)-5-methyl-2-(1-(methyl-d3)-6-(3,3,4,4,4-pentafluorobutyl)-1H-pyrazolo[3,4-d]pyrimidin-4-yl)-5,7-dihydro-6H-pyrrolo[2,3-d]pyrimidin-6-one] |  | B (Category B=SBP in SHRs 15-25 mmHg)
